This note sets out measurements from patent publication US12428406B2 (PMV Pharmaceuticals, Inc., priority 2019, dated 2025).

The assay deals with T1, p53 Y220C (Homo sapiens, UniProt P04637, Y220C).
T1 construct: The recombinant protein was a truncation mutant containing only amino acids 94-312 of p53; made in house; host or cells: E. coli
T1 sequence (P04637 94-312, change not shown): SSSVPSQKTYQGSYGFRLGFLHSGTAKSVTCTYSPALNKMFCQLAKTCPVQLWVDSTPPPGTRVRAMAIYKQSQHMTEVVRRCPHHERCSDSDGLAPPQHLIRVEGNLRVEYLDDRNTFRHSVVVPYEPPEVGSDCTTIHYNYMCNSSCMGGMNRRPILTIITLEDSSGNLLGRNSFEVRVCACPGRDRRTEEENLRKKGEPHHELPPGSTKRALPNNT
Description: In vitro DNA binding activity assay (HTRF / TR-FRET): stabilization of p53 Y220C and increase of its DNA binding activity. The following applies: recombinant His-tagged p53 Y220C DNA binding domain (aa 94-312), biotin-labeled consensus DNA, incubated at 27° C. or 29° C. for 60 min. The format is biochemical. The gist of the method:
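Compounds from 4.5 mM DMSO stocks, 3-fold serial dilutions; room-temperature incubations of 15 and 20 min. SC150 = concentration raising DNA binding by 50% over no-compound control.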
In general terms: Time-resolved FRET reads energy transfer from a long-lived donor to a nearby acceptor.
Consider `COCCN(C)[C@H]1CC[C@H](Nc2cccc3c2cc(C#CCNc2ccc(S(N)(=O)=O)cc2OCF)n3CC(F)(F)F)CC1` [Compound 168A, 3-(fluoromethoxy)-4-{[3-(4-{[(1R,4R)-4-[(2-methoxyethyl)(methyl)amino]cyclohexyl]amino}-1-(2,2,2-trifluoro-ethyl)-1H-indol-2-yl)prop-2-yn-1-yl]amino}benzene-1-sulfonamide], for which the “SC150 (concentration of the compound required to increase the DNA binding activity by 50%)” value was “+ (+ = 0 μM ≤ SC150 < 0.05 μM)”.
Take `COc1cc(C(N)=O)ccc1NCC#Cc1cc2c(N[C@H]3CC[C@H](N4CCOCC4)CC3)cccc2n1CC(F)(F)F` [Compound 170A, 3-methoxy-4-{[3-(4-{[(1R,4R)-4-(morpholin-4-yl)cyclohexyl]amino}-1-(2,2,2-trifluoroethyl)-1H-indol-2-yl)prop-2-yn-1-yl]amino}benzamide]: the “SC150 (concentration of the compound required to increase the DNA binding activity by 50%)” value was “+ (+ = 0 μM ≤ SC150 < 0.05 μM)”.
In the case of `COc1cc(C(N)=O)ccc1NCC#Cc1cc2c(N[C@H]3CC[C@@H](N4CCOCC4)CC3)cccc2n1CC(F)(F)F` [Compound 171A, 3-methoxy-4-{[3-(4-{[(1S,4S)-4-(morpholin-4-yl)cyclohexyl]amino}-1-(2,2,2-trifluoroethyl)-1H-indol-2-yl)prop-2-yn-1-yl]amino}benzamide], the “SC150 (concentration of the compound required to increase the DNA binding activity by 50%)” value is “+ (+ = 0 μM ≤ SC150 < 0.05 μM)”.
In the case of `CNC(=O)c1ccc(NCC#Cc2cc3c(N[C@H]4CC[C@H](N5CCOCC5)CC4)cccc3n2CC(F)(F)F)c(OC)c1` [Compound 172A, 3-methoxy-N-methyl-4-{[3-(4-{[(1R,4R)-4-(morpholin-4-yl)cyclohexyl]amino}-1-(2,2,2-trifluoroethyl)-1H-indol-2-yl)prop-2-yn-1-yl]amino}benzamide], the “SC150 (concentration of the compound required to increase the DNA binding activity by 50%)” value is recorded as “+ (+ = 0 μM ≤ SC150 < 0.05 μM)”.
For `CNC(=O)c1ccc(NCC#Cc2cc3c(N[C@H]4CC[C@@H](N5CCOCC5)CC4)cccc3n2CC(F)(F)F)c(OC)c1` [Compound 173A, 3-methoxy-N-methyl-4-{[3-(4-{[(1S,4S)-4-(morpholin-4-yl)cyclohexyl]amino}-1-(2,2,2-trifluoro-ethyl)-1H-indol-2-yl)prop-2-yn-1-yl]amino}benzamide], the “SC150 (concentration of the compound required to increase the DNA binding activity by 50%)” value was “+ (+ = 0 μM ≤ SC150 < 0.05 μM)”.
Consider `COc1cc(S(C)(=O)=O)ccc1NCC#Cc1cc2c(N[C@H]3CC[C@H](N4CCOCC4)CC3)cccc2n1CC#N` [Compound 174A, 2-(2-{3-[(4-methane-sulfonyl-2-methoxy-phenyl)amino]prop-1-yn-1-yl}-4-{[(1R,4R)-4-(morpholin-4-yl)cyclo-hexyl]amino}-1H-indol-1-yl)acetonitrile], for which the “SC150 (concentration of the compound required to increase the DNA binding activity by 50%)” value was “+ (+ = 0 μM ≤ SC150 < 0.05 μM)”.
Turning to `CNC(=O)c1ccc(NCC#Cc2cc3c(N[C@H]4CC[C@H](N5CCOCC5)CC4)cccc3n2CCF)c(OC)c1` [Compound 175A, 4-({3-[1-(2-fluoro-ethyl)-4-{[(1R,4R)-4-(morpholin-4-yl)cyclohexyl]amino}-1H-indol-2-yl]prop-2-yn-1-yl}amino)-3-methoxy-N-methylbenzamide], the “SC150 (concentration of the compound required to increase the DNA binding activity by 50%)” value is on record as “++ (++ = 0.05 μM ≤ SC150 < 0.1 μM)”.
Turning to `COc1cc(S(C)(=O)=O)ccc1NCC#Cc1cc2c(N[C@H]3CC[C@H](N4CCOCC4)CC3)cccc2n1CCF` [Compound 176A, 1-(2-fluoroethyl)-2-{3-[(4-methane-sulfonyl-2-methoxy-phenyl)amino]prop-1-yn-1-yl}-N-[(1R,4R)-4-(morpholin-4-yl)cyclo-hexyl]-1H-indol-4-amine], the “SC150 (concentration of the compound required to increase the DNA binding activity by 50%)” value is listed as “+ (+ = 0 μM ≤ SC150 < 0.05 μM)”.
As for `CNC(=O)c1ccc(NCC#Cc2cc3c(N[C@H]4CC[C@H](N5CCOCC5)CC4)cccc3n2CC#N)c(OC)c1` [Compound 177A, 4-({3-[1-(cyanomethyl)-4-{[(1R,4R)-4-(morpholin-4-yl)cyclohexyl]amino}-1H-indol-2-yl]prop-2-yn-1-yl}amino)-3-methoxy-N-methyl-benzamide], the “SC150 (concentration of the compound required to increase the DNA binding activity by 50%)” value is “+ (+ = 0 μM ≤ SC150 < 0.05 μM)”.
Regarding `CCCn1c(C#CCNc2ccc(S(C)(=O)=O)cc2OC)cc2c(N[C@H]3CC[C@H](N4CCOCC4)CC3)cccc21` [Compound 178A, 2-{3-[(4-methane-sulfonyl-2-methoxy-phenyl)amino]prop-1-yn-1-yl}-1-propyl-N-[(1R,4R)-4-(morpholin-4-yl)cyclohexyl]-1H-indol-4-amine], the “SC150 (concentration of the compound required to increase the DNA binding activity by 50%)” value was “+ (+ = 0 μM ≤ SC150 < 0.05 μM)”.
`COc1cc(S(C)(=O)=O)ccc1NCC#Cc1cc2c(N[C@H]3CC[C@H](N4CCOCC4)CC3)cccc2n1CC(C)C` [Compound 179A, 2-{3-[(4-methane-sulfonyl-2-methoxy-phenyl)amino]prop-1-yn-1-yl}-1-(2-methyl-propyl)-N-[(1R,4R)-4-(morpholin-4-yl)cyclohexyl]-1H-indol-4-amine]: the “SC150 (concentration of the compound required to increase the DNA binding activity by 50%)” value is “++ (++ = 0.05 μM ≤ SC150 < 0.1 μM)”.
Regarding `COc1cc(S(C)(=O)=O)ccc1NCC#Cc1cc2c(N[C@H]3CC[C@H](N4CCOCC4)CC3)cccc2n1CC(F)F` [Compound 180A, 1-(2,2-difluoroethyl)-2-{3-[(4-methane-sulfonyl-2-methoxy-phenyl)amino]prop-1-yn-1-yl}-N-[(1R,4R)-4-(morpholin-4-yl)cyclo-hexyl]-1H-indol-4-amine], the “SC150 (concentration of the compound required to increase the DNA binding activity by 50%)” value is on record as “+ (+ = 0 μM ≤ SC150 < 0.05 μM)”.
For `CCNC(=O)c1ccc(NCC#Cc2cc3c(N[C@H]4CC[C@H](N5CCOCC5)CC4)cccc3n2CC(F)(F)F)c(OC)c1` [Compound 183A, N-ethyl-3-methoxy-4-{[3-(4-{[(1R,4R)-4-(morpholin-4-yl)cyclohexyl]amino}-1-(2,2,2-trifluoroethyl)-1H-indol-2-yl)prop-2-yn-1-yl]amino}benzamide], the “SC150 (concentration of the compound required to increase the DNA binding activity by 50%)” value is “+ (+ = 0 μM ≤ SC150 < 0.05 μM)”.
Turning to `CS(=O)(=O)c1ccc(NCC#Cc2cc3c(N[C@H]4CC[C@H](N5CCOCC5)CC4)cccc3n2CC(F)(F)F)c(OCC#N)c1` [Compound 185A, 2-(5-methanesulfonyl-2-{[3-(4-{[(1R,4R)-4-(morpholin-4-yl)cyclohexyl]amino}-1-(2,2,2-trifluoroethyl)-1H-indol-2-yl)prop-2-yn-1-yl]amino}phenoxy)acetonitrile], the “SC150 (concentration of the compound required to increase the DNA binding activity by 50%)” value is on record as “+ (+ = 0 μM ≤ SC150 < 0.05 μM)”.
Turning to `CS(=O)(=O)c1ccc(NCC#Cc2cc3c(N[C@H]4CC[C@@H](N5CCOCC5)CC4)cccc3n2CC(F)(F)F)c(OCC#N)c1` [Compound 186A, 2-(5-methanesulfonyl-2-{[3-(4-{[(1S,4S)-4-(morpholin-4-yl)cyclohexyl]amino}-1-(2,2,2-trifluoroethyl)-1H-indol-2-yl)prop-2-yn-1-yl]amino}phenoxy)acetonitrile], the “SC150 (concentration of the compound required to increase the DNA binding activity by 50%)” value is recorded as “+ (+ = 0 μM ≤ SC150 < 0.05 μM)”.
With `CNS(=O)(=O)c1ccc(NCC#Cc2cc3c(N[C@H]4CC[C@H](N5CCOCC5)CC4)cccc3n2CC(F)(F)F)c(OC)c1` [Compound 187A, 3-methoxy-N-methyl-4-{[3-(4-{[(1R,4R)-4-(morpholin-4-yl)cyclohexyl]amino}-1-(2,2,2-trifluoroethyl)-1H-indol-2-yl)prop-2-yn-1-yl]amino}benzene-1-sulfonamide] the entry was “+ (+ = 0 μM ≤ SC150 < 0.05 μM)”; with `COc1cc(S(C)(=O)=O)ccc1NCC#Cc1cc2c(N[C@H]3CC[C@H](N4CC(S(C)(=O)=O)C4)CC3)cccc2n1CC(F)(F)F` [Compound 188A, 2-{3-[(4-methane-sulfonyl-2-methoxy-phenyl)amino]prop-1-yn-1-yl}-N-[(1R,4R)-4-(3-methanesulfonyl-azetidin-1-yl)cyclohexyl]-1-(2,2,2-trifluoroethyl)-1H-indol-4-amine], “+ (+ = 0 μM ≤ SC150 < 0.05 μM)”; with `COc1cc(S(N)(=O)=O)ccc1NCC#Cc1cc2c(N[C@H]3CC[C@H](N4CC(S(C)(=O)=O)C4)CC3)cccc2n1CC(F)(F)F` [Compound 190A, 3-methoxy-4-{[3-(4-{[(1R,4R)-4-(3-methanesulfonyl-azetidin-1-yl)cyclo-hexyl]amino}-1-(2,2,2-trifluoroethyl)-1H-indol-2-yl)prop-2-yn-1-yl]amino}benzene-1-sulfonamide], “+ (+ = 0 μM ≤ SC150 < 0.05 μM)”.
As for `CNC(=O)c1ccc(NCC#Cc2cc3c(N[C@H]4CC[C@H](N5CC(S(C)(=O)=O)C5)CC4)cccc3n2CC(F)(F)F)c(OC)c1` [Compound 192A, 3-methoxy-N-methyl-4-{[3-(4-{[(1R,4R)-4-(3-methanesulfonyl-azetidin-1-yl)cyclo-hexyl]amino}-1-(2,2,2-trifluoroethyl)-1H-indol-2-yl)prop-2-yn-1-yl]amino}benzamide], the “SC150 (concentration of the compound required to increase the DNA binding activity by 50%)” value is listed as “+ (+ = 0 μM ≤ SC150 < 0.05 μM)”.
With `COc1cc(S(C)(=O)=O)ccc1NCC#Cc1cc2c(N[C@H]3CC[C@H](N4CC5(CCC5)C4)CC3)cccc2n1CC(F)(F)F` [Compound 194A, 2-{3-[(4-methane-sulfonyl-2-methoxy-phenyl)amino]prop-1-yn-1-yl}-N-[(1R,4R)-4-{2-azaspiro[3.3]heptan-2-yl}cyclohexyl]-1-(2,2,2-trifluoroethyl)-1H-indol-4-amine] the entry was “+ (+ = 0 μM ≤ SC150 < 0.05 μM)”; with `CNC(=O)c1ccc(NCC#Cc2cc3c(N[C@H]4CC[C@H](N5CC6(CCC6)C5)CC4)cccc3n2CC(F)(F)F)c(OC)c1` [Compound 196A, 3-methoxy-N-methyl-4-{[3-(4-{[(1R,4R)-4-{2-azaspiro[3.3]heptan-2-yl}cyclohexyl]amino}-1-(2,2,2-trifluoroethyl)-1H-indol-2-yl)prop-2-yn-1-yl]amino}benzamide], “+ (+ = 0 μM ≤ SC150 < 0.05 μM)”.
